The source of these data is ChEMBL document CHEMBL4725218, “Deep Learning Enhancing Kinome-Wide Polypharmacology Profiling: Model Construction and Experiment Validation” (J Med Chem, 2020).

For assay [1], the target named is Tyrosine-protein kinase Blk (Mus musculus) (UniProt P16277). Nature of the assay: Inhibition of mouse BLK assessed as remaining enzyme activity at 0.1 uM.
The target of assay [2] is Platelet-derived growth factor receptor beta (Homo sapiens) (UniProt P09619). The assay is described as follows: Inhibition of human PDGFRbeta assessed as remaining enzyme activity at 1 uM.
Assay [3] addresses Macrophage colony-stimulating factor 1 receptor (Homo sapiens) (UniProt P07333). Nature of the assay: Inhibition of human FMS assessed as remaining enzyme activity at 0.01 uM.
The target in assay [4] is T1, Muscle, skeletal receptor tyrosine-protein kinase (Homo sapiens) (UniProt O15146).
T1 sequence (whole entry): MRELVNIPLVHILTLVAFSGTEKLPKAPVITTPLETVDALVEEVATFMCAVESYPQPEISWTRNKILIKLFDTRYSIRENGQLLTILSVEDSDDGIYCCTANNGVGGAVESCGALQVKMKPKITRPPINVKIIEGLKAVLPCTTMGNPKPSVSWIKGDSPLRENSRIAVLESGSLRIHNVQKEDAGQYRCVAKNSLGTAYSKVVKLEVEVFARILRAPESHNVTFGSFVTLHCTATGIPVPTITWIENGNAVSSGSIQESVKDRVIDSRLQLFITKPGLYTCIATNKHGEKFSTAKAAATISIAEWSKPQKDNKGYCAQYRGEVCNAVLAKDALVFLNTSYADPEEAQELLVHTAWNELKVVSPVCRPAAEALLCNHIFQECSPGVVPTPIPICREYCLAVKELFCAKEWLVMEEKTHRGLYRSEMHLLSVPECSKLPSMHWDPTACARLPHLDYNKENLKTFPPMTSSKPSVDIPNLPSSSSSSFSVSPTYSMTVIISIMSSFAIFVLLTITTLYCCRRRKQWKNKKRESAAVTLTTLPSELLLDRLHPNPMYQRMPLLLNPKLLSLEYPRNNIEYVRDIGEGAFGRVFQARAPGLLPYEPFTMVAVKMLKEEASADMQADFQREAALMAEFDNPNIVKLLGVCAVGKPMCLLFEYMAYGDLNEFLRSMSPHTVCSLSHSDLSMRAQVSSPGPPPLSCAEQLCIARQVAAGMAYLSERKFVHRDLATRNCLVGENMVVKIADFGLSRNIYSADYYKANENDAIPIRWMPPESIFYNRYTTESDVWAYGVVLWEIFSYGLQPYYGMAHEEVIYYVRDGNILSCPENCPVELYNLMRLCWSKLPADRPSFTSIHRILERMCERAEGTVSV
The assay is described as follows: Inhibition of human MuSK assessed as remaining enzyme activity at 0.1 uM.

The target in assay [5] is Macrophage colony-stimulating factor 1 receptor (Homo sapiens) (UniProt P07333). The assay is described as follows: Inhibition of human FMS assessed as remaining enzyme activity at 0.1 uM.
Assay [6] addresses Vascular endothelial growth factor receptor 1 (Homo sapiens) (UniProt P17948). Nature of the assay: Inhibition of human VEGFR1 assessed as remaining enzyme activity at 0.1 uM.
In assay [7] the target is MAP kinase-interacting serine/threonine-protein kinase 2 (Homo sapiens) (UniProt Q9HBH9). Nature of the assay: Inhibition of human MNK2 assessed as remaining enzyme activity at 1 uM.
In assay [8] the target is Homeodomain-interacting protein kinase 3 (Homo sapiens) (UniProt Q9H422). The assay is described as follows: Inhibition of human HIPK3 assessed as remaining enzyme activity at 0.1 uM.
The target of assay [9] is Tyrosine-protein kinase Blk (Mus musculus) (UniProt P16277). The assay is described as follows: Inhibition of mouse BLK assessed as remaining enzyme activity at 0.01 uM.
In assay [10] the target is RAF proto-oncogene serine/threonine-protein kinase (Homo sapiens) (UniProt P04049). Nature of the assay: Inhibition of human RAF1 assessed as remaining enzyme activity at 1 uM.
For assay [11], the target named is Receptor-type tyrosine-protein kinase FLT3 (Homo sapiens) (UniProt P36888). The assay is described as follows: Inhibition of human FLT3 assessed as remaining enzyme activity at 1 uM.
Assay [12] deals with Tyrosine-protein kinase ABL1 (Homo sapiens) (UniProt P00519). Nature of the assay: Inhibition of human ABL assessed as remaining enzyme activity at 1 uM.
The target of assay [13] is T2, Ephrin type-A receptor 8 (Homo sapiens) (UniProt P29322).
T2 sequence (whole entry): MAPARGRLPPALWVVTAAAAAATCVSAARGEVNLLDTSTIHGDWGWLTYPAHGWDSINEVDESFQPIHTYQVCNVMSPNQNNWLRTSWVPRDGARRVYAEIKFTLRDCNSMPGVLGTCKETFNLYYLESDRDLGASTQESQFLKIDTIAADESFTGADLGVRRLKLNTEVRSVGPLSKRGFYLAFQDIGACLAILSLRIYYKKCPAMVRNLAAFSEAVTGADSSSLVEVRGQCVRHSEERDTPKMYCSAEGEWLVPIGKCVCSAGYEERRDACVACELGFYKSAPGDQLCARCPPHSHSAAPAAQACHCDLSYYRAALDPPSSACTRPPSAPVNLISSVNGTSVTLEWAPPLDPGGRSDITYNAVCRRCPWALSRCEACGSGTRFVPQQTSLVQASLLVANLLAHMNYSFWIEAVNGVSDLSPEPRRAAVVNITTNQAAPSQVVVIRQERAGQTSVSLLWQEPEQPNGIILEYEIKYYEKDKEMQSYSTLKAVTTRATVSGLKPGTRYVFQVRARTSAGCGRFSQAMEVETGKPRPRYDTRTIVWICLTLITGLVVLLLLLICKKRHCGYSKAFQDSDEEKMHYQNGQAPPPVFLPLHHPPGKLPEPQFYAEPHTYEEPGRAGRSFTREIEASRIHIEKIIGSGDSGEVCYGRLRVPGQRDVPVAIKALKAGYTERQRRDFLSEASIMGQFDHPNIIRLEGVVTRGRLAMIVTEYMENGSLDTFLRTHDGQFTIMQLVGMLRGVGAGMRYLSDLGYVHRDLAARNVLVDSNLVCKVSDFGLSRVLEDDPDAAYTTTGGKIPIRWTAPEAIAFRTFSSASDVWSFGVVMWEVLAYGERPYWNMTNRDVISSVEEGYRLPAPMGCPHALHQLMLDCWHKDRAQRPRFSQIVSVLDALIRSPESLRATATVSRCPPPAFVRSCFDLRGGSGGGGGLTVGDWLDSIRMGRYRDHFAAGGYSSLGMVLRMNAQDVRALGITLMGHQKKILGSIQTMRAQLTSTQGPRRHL
The assay is described as follows: Inhibition of human EphA8 assessed as remaining enzyme activity at 0.1 uM.

The target in assay [14] is Mitogen-activated protein kinase 14 (Homo sapiens) (UniProt Q16539). The assay is described as follows: Inhibition of human p38alpha assessed as remaining enzyme activity at 0.1 uM.
Assay [15] has as its target Vascular endothelial growth factor receptor 3 (Homo sapiens) (UniProt P35916). The assay is described as follows: Inhibition of human VEGFR3 assessed as remaining enzyme activity at 0.1 uM.
Assay [16] deals with Vascular endothelial growth factor receptor 2 (Homo sapiens) (UniProt P35968). The assay is described as follows: Inhibition of human VEGFR2 assessed as remaining enzyme activity at 1 uM.
Assay [17] has as its target BDNF/NT-3 growth factors receptor (Homo sapiens) (UniProt Q16620). Nature of the assay: Inhibition of human TRKB assessed as remaining enzyme activity at 0.01 uM.
For assay [18], the target named is Tyrosine-protein kinase ABL2 (Mus musculus) (UniProt Q4JIM5). Nature of the assay: Inhibition of mouse ARG assessed as remaining enzyme activity at 0.1 uM.

SMILES strings stand for the structures.

Chain of Macrophage colony-stimulating factor 1 receptor (Homo sapiens) (P07333 whole entry): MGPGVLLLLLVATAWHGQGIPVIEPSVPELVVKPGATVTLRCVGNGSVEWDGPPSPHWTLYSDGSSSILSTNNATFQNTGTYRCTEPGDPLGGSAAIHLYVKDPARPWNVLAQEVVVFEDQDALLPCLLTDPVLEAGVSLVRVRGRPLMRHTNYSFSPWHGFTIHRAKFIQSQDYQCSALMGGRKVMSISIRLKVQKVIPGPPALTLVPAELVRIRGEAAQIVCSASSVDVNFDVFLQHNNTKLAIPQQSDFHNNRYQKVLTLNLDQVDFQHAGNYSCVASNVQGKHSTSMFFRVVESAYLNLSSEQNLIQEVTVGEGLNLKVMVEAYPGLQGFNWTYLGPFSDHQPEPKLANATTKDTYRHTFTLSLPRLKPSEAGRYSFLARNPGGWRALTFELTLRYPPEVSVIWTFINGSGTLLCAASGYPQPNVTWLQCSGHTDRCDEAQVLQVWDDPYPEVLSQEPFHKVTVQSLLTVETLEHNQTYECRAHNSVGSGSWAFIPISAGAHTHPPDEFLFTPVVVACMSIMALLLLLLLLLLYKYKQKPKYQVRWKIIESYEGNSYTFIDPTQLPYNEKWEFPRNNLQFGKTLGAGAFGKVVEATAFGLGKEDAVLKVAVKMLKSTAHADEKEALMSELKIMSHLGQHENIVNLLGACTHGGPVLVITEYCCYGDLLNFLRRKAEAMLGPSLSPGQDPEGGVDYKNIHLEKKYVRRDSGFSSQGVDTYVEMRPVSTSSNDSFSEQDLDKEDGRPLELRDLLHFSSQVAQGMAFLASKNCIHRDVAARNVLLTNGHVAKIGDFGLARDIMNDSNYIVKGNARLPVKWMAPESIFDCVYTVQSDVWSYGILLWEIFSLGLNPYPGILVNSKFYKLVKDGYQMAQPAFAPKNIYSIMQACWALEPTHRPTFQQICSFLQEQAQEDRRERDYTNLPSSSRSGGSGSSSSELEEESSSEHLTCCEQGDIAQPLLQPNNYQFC
Chain of Tyrosine-protein kinase Blk (Mus musculus) (P16277 whole entry): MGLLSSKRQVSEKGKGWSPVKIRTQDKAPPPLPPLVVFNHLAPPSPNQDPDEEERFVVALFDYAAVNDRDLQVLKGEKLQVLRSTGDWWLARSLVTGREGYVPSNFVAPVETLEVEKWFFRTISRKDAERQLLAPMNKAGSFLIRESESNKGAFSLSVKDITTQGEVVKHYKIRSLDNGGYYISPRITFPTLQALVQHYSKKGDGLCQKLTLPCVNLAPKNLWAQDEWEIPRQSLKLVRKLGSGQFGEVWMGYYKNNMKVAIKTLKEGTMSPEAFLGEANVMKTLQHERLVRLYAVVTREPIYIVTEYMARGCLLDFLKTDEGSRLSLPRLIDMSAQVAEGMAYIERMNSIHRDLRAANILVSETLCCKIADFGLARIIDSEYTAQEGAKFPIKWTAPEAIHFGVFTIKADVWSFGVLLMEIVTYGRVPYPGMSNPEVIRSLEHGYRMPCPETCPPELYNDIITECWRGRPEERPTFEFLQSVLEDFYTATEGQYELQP
Chain of Mitogen-activated protein kinase 14 (Homo sapiens) (Q16539 whole entry): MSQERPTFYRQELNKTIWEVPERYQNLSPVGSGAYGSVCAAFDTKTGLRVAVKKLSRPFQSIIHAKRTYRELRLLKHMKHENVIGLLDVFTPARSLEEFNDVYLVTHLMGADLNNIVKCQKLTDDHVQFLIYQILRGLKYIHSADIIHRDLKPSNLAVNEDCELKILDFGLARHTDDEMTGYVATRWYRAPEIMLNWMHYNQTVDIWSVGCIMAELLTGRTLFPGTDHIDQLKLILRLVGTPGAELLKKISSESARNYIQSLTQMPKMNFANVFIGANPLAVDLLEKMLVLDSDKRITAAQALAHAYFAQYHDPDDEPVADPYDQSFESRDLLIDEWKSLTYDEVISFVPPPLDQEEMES
Chain of Tyrosine-protein kinase ABL1 (Homo sapiens) (P00519 whole entry): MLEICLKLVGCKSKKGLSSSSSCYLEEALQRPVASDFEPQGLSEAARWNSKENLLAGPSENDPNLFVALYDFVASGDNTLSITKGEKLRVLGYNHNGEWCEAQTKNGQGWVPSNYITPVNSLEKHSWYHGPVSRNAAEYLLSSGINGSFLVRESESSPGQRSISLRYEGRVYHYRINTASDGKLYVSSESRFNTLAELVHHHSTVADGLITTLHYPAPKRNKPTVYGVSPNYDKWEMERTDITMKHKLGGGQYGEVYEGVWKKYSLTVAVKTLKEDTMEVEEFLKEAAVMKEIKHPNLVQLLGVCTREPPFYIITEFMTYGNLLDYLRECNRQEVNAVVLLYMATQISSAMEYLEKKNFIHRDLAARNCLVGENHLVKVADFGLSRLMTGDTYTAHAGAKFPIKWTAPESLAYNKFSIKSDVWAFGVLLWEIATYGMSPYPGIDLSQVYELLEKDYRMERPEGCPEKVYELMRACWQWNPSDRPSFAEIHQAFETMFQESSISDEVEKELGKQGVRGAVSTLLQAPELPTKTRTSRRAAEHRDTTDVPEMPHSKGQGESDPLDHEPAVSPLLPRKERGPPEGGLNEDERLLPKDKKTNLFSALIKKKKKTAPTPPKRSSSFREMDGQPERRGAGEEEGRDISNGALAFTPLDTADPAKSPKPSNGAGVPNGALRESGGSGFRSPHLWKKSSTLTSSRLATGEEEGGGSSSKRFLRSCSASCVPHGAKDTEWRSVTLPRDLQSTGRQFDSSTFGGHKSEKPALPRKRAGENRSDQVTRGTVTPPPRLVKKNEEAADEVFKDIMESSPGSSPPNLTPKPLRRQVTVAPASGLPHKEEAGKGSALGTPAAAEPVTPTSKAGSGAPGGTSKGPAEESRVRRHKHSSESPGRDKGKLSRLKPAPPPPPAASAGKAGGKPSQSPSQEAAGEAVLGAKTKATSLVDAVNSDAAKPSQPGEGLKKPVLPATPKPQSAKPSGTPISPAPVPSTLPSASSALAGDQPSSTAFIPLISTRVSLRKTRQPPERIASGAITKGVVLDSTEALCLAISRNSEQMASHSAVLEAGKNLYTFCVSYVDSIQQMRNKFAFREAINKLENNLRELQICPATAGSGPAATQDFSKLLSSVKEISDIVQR
Chain of Vascular endothelial growth factor receptor 2 (Homo sapiens) (P35968 whole entry): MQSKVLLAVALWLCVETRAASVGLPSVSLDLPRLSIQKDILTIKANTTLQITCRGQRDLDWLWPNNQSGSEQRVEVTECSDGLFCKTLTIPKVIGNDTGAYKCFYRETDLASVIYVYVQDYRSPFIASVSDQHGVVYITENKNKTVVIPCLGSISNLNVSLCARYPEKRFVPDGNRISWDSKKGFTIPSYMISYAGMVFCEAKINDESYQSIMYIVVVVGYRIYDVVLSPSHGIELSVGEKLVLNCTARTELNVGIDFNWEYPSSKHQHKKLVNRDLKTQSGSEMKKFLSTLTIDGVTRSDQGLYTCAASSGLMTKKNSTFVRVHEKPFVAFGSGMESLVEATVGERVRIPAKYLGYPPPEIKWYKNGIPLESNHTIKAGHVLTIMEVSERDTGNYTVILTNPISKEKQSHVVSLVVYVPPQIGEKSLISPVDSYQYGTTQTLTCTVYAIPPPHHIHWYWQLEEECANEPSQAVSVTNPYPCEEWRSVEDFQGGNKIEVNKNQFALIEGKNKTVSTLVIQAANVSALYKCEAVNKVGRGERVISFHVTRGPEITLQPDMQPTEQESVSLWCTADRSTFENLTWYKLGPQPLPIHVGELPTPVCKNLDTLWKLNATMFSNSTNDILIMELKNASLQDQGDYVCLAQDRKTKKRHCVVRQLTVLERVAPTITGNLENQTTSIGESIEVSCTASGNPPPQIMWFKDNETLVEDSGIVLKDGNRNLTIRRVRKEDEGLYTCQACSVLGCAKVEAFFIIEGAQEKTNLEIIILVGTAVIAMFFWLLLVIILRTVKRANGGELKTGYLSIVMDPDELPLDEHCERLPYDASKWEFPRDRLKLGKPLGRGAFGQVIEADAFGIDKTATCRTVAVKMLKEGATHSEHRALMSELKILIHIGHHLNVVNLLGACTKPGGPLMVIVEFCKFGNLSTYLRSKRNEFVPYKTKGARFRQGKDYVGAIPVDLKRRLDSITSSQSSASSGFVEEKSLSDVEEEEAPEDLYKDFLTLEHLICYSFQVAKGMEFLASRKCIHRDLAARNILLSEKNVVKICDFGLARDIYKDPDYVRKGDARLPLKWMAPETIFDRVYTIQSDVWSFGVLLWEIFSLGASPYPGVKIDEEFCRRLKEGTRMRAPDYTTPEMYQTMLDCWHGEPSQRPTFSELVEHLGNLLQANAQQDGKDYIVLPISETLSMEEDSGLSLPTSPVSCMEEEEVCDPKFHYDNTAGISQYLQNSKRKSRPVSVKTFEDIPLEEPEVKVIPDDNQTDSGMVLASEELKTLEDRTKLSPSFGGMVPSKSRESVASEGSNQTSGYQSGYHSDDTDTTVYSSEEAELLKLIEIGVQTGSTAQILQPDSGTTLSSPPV
Chain of RAF proto-oncogene serine/threonine-protein kinase (Homo sapiens) (P04049 whole entry): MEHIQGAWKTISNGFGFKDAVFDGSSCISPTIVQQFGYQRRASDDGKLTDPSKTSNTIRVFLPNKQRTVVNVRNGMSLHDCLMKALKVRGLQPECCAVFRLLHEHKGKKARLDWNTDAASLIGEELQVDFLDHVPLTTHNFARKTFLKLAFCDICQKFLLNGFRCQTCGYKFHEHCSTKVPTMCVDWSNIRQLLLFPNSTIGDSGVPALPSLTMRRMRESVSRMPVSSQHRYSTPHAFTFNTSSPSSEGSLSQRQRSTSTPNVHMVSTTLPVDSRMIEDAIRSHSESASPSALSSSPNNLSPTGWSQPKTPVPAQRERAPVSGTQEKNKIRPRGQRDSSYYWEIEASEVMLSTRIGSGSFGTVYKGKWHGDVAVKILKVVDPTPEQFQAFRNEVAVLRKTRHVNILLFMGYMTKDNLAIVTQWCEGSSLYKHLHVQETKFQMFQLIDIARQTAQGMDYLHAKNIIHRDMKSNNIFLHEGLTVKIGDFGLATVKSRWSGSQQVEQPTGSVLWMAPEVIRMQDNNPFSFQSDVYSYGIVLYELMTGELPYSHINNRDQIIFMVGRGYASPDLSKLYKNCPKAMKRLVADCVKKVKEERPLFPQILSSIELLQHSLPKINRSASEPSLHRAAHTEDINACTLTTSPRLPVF

As for `CNC(=O)c1cc(Oc2ccc(NC(=O)Nc3ccc(Cl)c(C(F)(F)F)c3)c(F)c2)ccn1`, the Activity in assay [1] came to 45%; in assay [2], 55%; in assay [3], 73%; in [4], 92%; in assay [5], 36%; in assay [6] it was 3%. Moreover, the Activity is 34% in assay [7]; 68% in assay [8]; 52% in assay [9]; 8% in assay [10]; 31% in [11]; 8% in [12]. Further, the Activity in assay [13] is 44%; in assay [14], 52%; in [15], 1%; in [16], 17%; in assay [17], 100%; in assay [18] it was 29%.
